From patent US7482024B2, “Compositions comprising an active agent” (Nektar Therapeutics, priority 1999, dated 2009)
Values joined by “and” are separate entries in the source; they are usually repeats but may differ in a detail not shown here. Equal values may be shown once. Values belong to the molecule of their own block, whether it stands above or below them. Peptide text beside a SMILES is read from it.

Experiment: Surface tension measurement, Kruss Processor Tensiometer-K12, Wilhelmy-method (plate method)
Type: physicochemical
Settings: for Surface tension, 25° C. Extrapolated Values at 2 mg/ml / Surface tension, 45° C. Extrapolated Values at 2 mg/ml: extrapolated to 2 mg/ml
Procedure: A “surface active” material is one having surface activity (measured, e.g., by surface tensiometry), as characterized by its ability to reduce the surface tension of the liquid in which it is dissolved. […] A peptide that is more surface active than another peptide is one which decreases the surface tension of water to a greater extent, when present in the liquid at the same concentration and measured under the same set of experimental conditions. The surface tension of several representative dipeptides, tripeptides, and proteins was measured at 25° C. and 45° C. to provide an indication of their relative surface activities. Surface tension measurements were carried out using a Kruss Processor Tensiometer-K12 with the Wilhelmy-method (Plate method). Solutions were prepared by dissolving either 0.05%, 0.2%, or 0.6% peptide/protein (by weight) along with an appropriate amount of raffinose by weight to provide final solutions having a 1.0% by weight solids content. Surface tension measurements at 25° C. and 45° C. were then obtained for the test solutions at three different time points (49 seconds, 100 seconds and 194 seconds).

Molecule: OC[C@H]1O[C@H](OC[C@H]2O[C@H](O[C@]3(CO)O[C@H](CO)[C@@H](O)[C@@H]3O)[C@H](O)[C@@H](O)[C@@H]2O)[C@H](O)[C@@H](O)[C@H]1O [raffinose]
Surface activity (ability to lower the surface tension of water), in words: non-surface active
Surface tension (ST) (1% raffinose, 25° C., 49 s): 72 mN/m
Surface tension (ST) (1% raffinose, 25° C., 100 s): 72 mN/m
Surface tension (ST) (1% raffinose, 25° C., 194 s): 72 mN/m
Surface tension (ST) (1% raffinose, pH4, 25° C., 49 s): 71.4 mN/m and 71.1 mN/m
Surface tension (ST) (1% raffinose, pH4, 25° C., 100 s): 71.4 mN/m and 71.1 mN/m
Surface tension (ST) (1% raffinose, pH4, 25° C., 194 s): 71.4 mN/m and 71.1 mN/m
Surface tension (ST) (1% raffinose, pH4, 45° C., 49 s): 67.9 mN/m and 68.2 mN/m and 68 mN/m
Surface tension (ST) (1% raffinose, pH4, 45° C., 100 s): 68 mN/m and 68.2 mN/m
Surface tension (ST) (1% raffinose, pH4, 45° C., 194 s): 68 mN/m and 68.2 mN/m and 68.1 mN/m
Surface tension (ST) (1% raffinose, pH7, 25° C., 49 s): 71.1 mN/m
Surface tension (ST) (1% raffinose, pH7, 25° C., 100 s): 71.1 mN/m
Surface tension (ST) (1% raffinose, pH7, 25° C., 194 s): 71.1 mN/m
Surface tension (ST) (1% raffinose, pH7, 45° C., 49 s): 68.4 mN/m and 68.3 mN/m
Surface tension (ST) (1% raffinose, pH7, 45° C., 100 s): 68.4 mN/m and 68.3 mN/m
Surface tension (ST) (1% raffinose, pH7, 45° C., 194 s): 68.4 mN/m and 68.3 mN/m

Molecule: Ala-Val-Leu [reference compound]
Surface tension, Actual MEAN (0.97 mg/ml, 25° C.): 67.5 mN/m
Surface tension, Actual MEAN (0.97 mg/ml, 45° C.): 60.3 mN/m
Surface tension, Actual MEAN (2.90 mg/ml, 25° C.): 62.8 mN/m
Surface tension, Actual MEAN (2.90 mg/ml, 45° C.): 57.7 mN/m
Surface tension, Actual MEAN (8.70 mg/ml, 25° C.): 55.7 mN/m
Surface tension, Actual MEAN (8.70 mg/ml, 45° C.): 53.8 mN/m
Surface tension, 25° C. Extrapolated Values at 2 mg/ml (25° C.): 65 mN/m
Surface tension, 45° C. Extrapolated Values at 2 mg/ml (45° C.): 58.9 mN/m

Molecule: Val-Ile [reference compound]
Surface tension, Actual MEAN (1.11 mg/ml, 25° C.): 71.6 mN/m
Surface tension, Actual MEAN (1.11 mg/ml, 45° C.): 66.3 mN/m
Surface tension, Actual MEAN (3.33 mg/ml, 25° C.): 70.1 mN/m
Surface tension, Actual MEAN (3.33 mg/ml, 45° C.): 65.3 mN/m
Surface tension, Actual MEAN (10.00 mg/ml, 25° C.): 66.1 mN/m
Surface tension, Actual MEAN (10.00 mg/ml, 45° C.): 61.9 mN/m
Surface tension, 25° C. Extrapolated Values at 2 mg/ml (25° C.): 70.3 mN/m
Surface tension, 45° C. Extrapolated Values at 2 mg/ml (45° C.): 65.8 mN/m

Molecule: Val-Leu [reference compound]
Surface tension, Actual MEAN (0.87 mg/ml, 25° C.): 70 mN/m
Surface tension, Actual MEAN (0.87 mg/ml, 45° C.): 65.5 mN/m
Surface tension, Actual MEAN (2.60 mg/ml, 25° C.): 69.5 mN/m
Surface tension, Actual MEAN (2.60 mg/ml, 45° C.): 65.0 mN/m
Surface tension, Actual MEAN (7.80 mg/ml, 25° C.): 68 mN/m
Surface tension, Actual MEAN (7.80 mg/ml, 45° C.): 63.5 mN/m
Surface tension, 25° C. Extrapolated Values at 2 mg/ml (25° C.): 69.8 mN/m
Surface tension, 45° C. Extrapolated Values at 2 mg/ml (45° C.): 65.3 mN/m

Further lines, results first:

Surface activity (ability to lower the surface tension of water), in words: highly surface active
Surface tension, Actual MEAN (0.68 mg/ml, 25° C.): 56.9 mN/m
Surface tension, Actual MEAN (0.68 mg/ml, 45° C.): 52.8 mN/m
Surface tension, Actual MEAN (2.03 mg/ml, 25° C.): 49.7 mN/m
Surface tension, Actual MEAN (2.03 mg/ml, 45° C.): 46.3 mN/m
Surface tension, Actual MEAN (6.10 mg/ml, 25° C.): 42.4 mN/m
Surface tension, Actual MEAN (6.10 mg/ml, 45° C.): 38.9 mN/m
Surface tension (ST) (0.05%, pH4, raffinose to 1% solids, 25° C., 49 s, listed as leu3): 59.9 mN/m and 60.4 mN/m
Surface tension (ST) (0.05%, pH4, raffinose to 1% solids, 25° C., 100 s, listed as leu3): 59.8 mN/m and 60.3 mN/m
Surface tension (ST) (0.05%, pH4, raffinose to 1% solids, 25° C., 194 s, listed as leu3): 59.7 mN/m and 60.2 mN/m
Surface tension (ST) (0.05%, pH4, raffinose to 1% solids, 45° C., 49 s, listed as leu3): 57.1 mN/m and 58.1 mN/m and 58 mN/m
Surface tension (ST) (0.05%, pH4, raffinose to 1% solids, 45° C., 100 s, listed as leu3): 57 mN/m and 57.9 mN/m and 57.8 mN/m
Surface tension (ST) (0.05%, pH4, raffinose to 1% solids, 45° C., 194 s, listed as leu3): 57 mN/m and 57.8 mN/m
Surface tension (ST) (0.05%, pH7, raffinose to 1% solids, 25° C., 49 s, listed as leu3): 60.1 mN/m and 60 mN/m and 60.2 mN/m
Surface tension (ST) (0.05%, pH7, raffinose to 1% solids, 25° C., 100 s, listed as leu3): 59.8 mN/m and 60 mN/m
Surface tension (ST) (0.05%, pH7, raffinose to 1% solids, 25° C., 194 s, listed as leu3): 59.7 mN/m and 59.8 mN/m
Surface tension (ST) (0.05%, pH7, raffinose to 1% solids, 45° C., 49 s, listed as leu3): 58.5 mN/m and 58.2 mN/m
Surface tension (ST) (0.05%, pH7, raffinose to 1% solids, 45° C., 100 s, listed as leu3): 58.4 mN/m and 58.2 mN/m and 58.1 mN/m
Surface tension (ST) (0.05%, pH7, raffinose to 1% solids, 45° C., 194 s, listed as leu3): 58.4 mN/m and 58.1 mN/m
Surface tension (ST) (0.2% (wt/vol) plus raffinose to 1% total solids, 25° C., 49 s): 51 mN/m
Surface tension (ST) (0.2% (wt/vol) plus raffinose to 1% total solids, 25° C., 100 s): 50.9 mN/m and 50.8 mN/m
Surface tension (ST) (0.2% (wt/vol) plus raffinose to 1% total solids, 25° C., 194 s): 50.9 mN/m and 50.7 mN/m
Surface tension (ST) (0.2%, pH4, raffinose to 1% solids, 25° C., 49 s): 51.4 mN/m
Surface tension (ST) (0.2%, pH4, raffinose to 1% solids, 25° C., 100 s, listed as leu3): 51.2 mN/m and 51.3 mN/m
Surface tension (ST) (0.2%, pH4, raffinose to 1% solids, 25° C., 194 s, listed as leu3): 51.1 mN/m and 51.2 mN/m
Surface tension (ST) (0.2%, pH4, raffinose to 1% solids, 45° C., 49 s, listed as leu3): 47.9 mN/m and 47.2 mN/m
Surface tension (ST) (0.2%, pH4, raffinose to 1% solids, 45° C., 100 s, listed as leu3): 47.5 mN/m and 47.2 mN/m and 47.3 mN/m
Surface tension (ST) (0.2%, pH4, raffinose to 1% solids, 45° C., 194 s, listed as leu3): 47.4 mN/m and 47.3 mN/m and 47.1 mN/m
Surface tension (ST) (0.2%, pH7, raffinose to 1% solids, 25° C., 49 s, listed as leu3): 51 mN/m and 50.9 mN/m and 50.7 mN/m
Surface tension (ST) (0.2%, pH7, raffinose to 1% solids, 25° C., 100 s, listed as leu3): 50.8 mN/m and 50.7 mN/m and 50.5 mN/m
Surface tension (ST) (0.2%, pH7, raffinose to 1% solids, 25° C., 194 s, listed as leu3): 50.7 mN/m and 50.6 mN/m and 50.4 mN/m
Surface tension (ST) (0.2%, pH7, raffinose to 1% solids, 45° C., 49 s, listed as leu3): 58.5 mN/m and 58.2 mN/m
Surface tension (ST) (0.2%, pH7, raffinose to 1% solids, 45° C., 100 s, listed as leu3): 58.4 mN/m and 58.2 mN/m and 58.1 mN/m
Surface tension (ST) (0.2%, pH7, raffinose to 1% solids, 45° C., 194 s, listed as leu3): 58.4 mN/m and 58.1 mN/m
Surface tension (ST) (0.6%, pH4, raffinose to 1% solids, 25° C., 49 s, listed as leu3): 44.2 mN/m and 44.3 mN/m
Surface tension (ST) (0.6%, pH4, raffinose to 1% solids, 25° C., 100 s, listed as leu3): 44.1 mN/m and 44.2 mN/m
Surface tension (ST) (0.6%, pH4, raffinose to 1% solids, 25° C., 194 s, listed as leu3): 44 mN/m and 44.2 mN/m and 44.1 mN/m
Surface tension (ST) (0.6%, pH4, raffinose to 1% solids, 45° C., 49 s, listed as leu3): 40.9 mN/m and 41.1 mN/m
Surface tension (ST) (0.6%, pH4, raffinose to 1% solids, 45° C., 100 s, listed as leu3): 40.9 mN/m and 41 mN/m
Surface tension (ST) (0.6%, pH4, raffinose to 1% solids, 45° C., 194 s, listed as leu3): 40.8 mN/m and 40.9 mN/m
Surface tension (ST) (0.6%, pH7, raffinose to 1% solids, 25° C., 49 s, listed as leu3): 43.7 mN/m and 43.8 mN/m
Surface tension (ST) (0.6%, pH7, raffinose to 1% solids, 25° C., 100 s): 43.7 mN/m
Surface tension (ST) (0.6%, pH7, raffinose to 1% solids, 25° C., 194 s, listed as leu3): 43.6 mN/m and 43.7 mN/m
Surface tension of water lowered to (concentration of 0.68 mg/ml): about 57 mN/m
Surface tension of water lowered to (concentration of 1.20 mg/ml, water about 72 mN/m): 42 mN/m
Surface tension, 25° C. Extrapolated Values at 2 mg/ml (25° C.): 49.7 mN/m
Surface tension, 45° C. Extrapolated Values at 2 mg/ml (45° C.): 46.3 mN/m
Molecule: CC(C)CC(N)C(=O)NC(CC(C)C)C(=O)NC(CC(C)C)C(=O)O (stereo not drawn) [tri-leucine, trileucine] (H-Leu-Leu-Leu-OH; configuration not given here)

Surface tension, Actual MEAN (0.71 mg/ml, 25° C.): 71.5 mN/m
Surface tension, Actual MEAN (0.71 mg/ml, 45° C.): 68.0 mN/m
Surface tension, Actual MEAN (2.13 mg/ml, 25° C.): 68.0 mN/m
Surface tension, Actual MEAN (2.13 mg/ml, 45° C.): 65.6 mN/m
Surface tension, Actual MEAN (6.40 mg/ml, 25° C.): 62.2 mN/m
Surface tension, Actual MEAN (6.40 mg/ml, 45° C.): 59.5 mN/m
Surface tension, 25° C. Extrapolated Values at 2 mg/ml (25° C.): 68.3 mN/m
Surface tension, 45° C. Extrapolated Values at 2 mg/ml (45° C.): 67.3 mN/m
Molecule: Leu-Tyr [reference compound]

Surface tension, Actual MEAN (0.98 mg/ml, 25° C.): 69.2 mN/m
Surface tension, Actual MEAN (0.98 mg/ml, 45° C.): 64.2 mN/m
Surface tension, Actual MEAN (2.93 mg/ml, 25° C.): 65 mN/m
Surface tension, Actual MEAN (2.93 mg/ml, 45° C.): 60.4 mN/m
Surface tension, Actual MEAN (8.80 mg/ml, 25° C.): 59.1 mN/m
Surface tension, Actual MEAN (8.80 mg/ml, 45° C.): 55.7 mN/m
Surface tension, 25° C. Extrapolated Values at 2 mg/ml (25° C.): 67.2 mN/m
Surface tension, 45° C. Extrapolated Values at 2 mg/ml (45° C.): 62.3 mN/m
Molecule: Leu-Val [reference compound]
